Assay results: patent US6989377B2, “Treating vitamin D responsive diseases” (priority 1999, dated 2006)

Columns and labels:
Format in all cases: in vivo, mouse
[1] = tested on: chronic DS-induced IBD in C3H/HeJ male mice; assay: Calcitriol treatment of chronic DS-induced colitis
Experimental: Fecal hemoglobin was analyzed in the mice to determine bleeding from a breached intestinal barrier. […] Co., Needham Heights, Mass.), the supernatants were decanted into fresh tubes and stored frozen at -20° C. Hemoglobin in the supernatants was analyzed by a method adapted from Saitoh et al., Digestion, 56:67-75, 1995, and Liem et al., Anal. Biochem., 98:388-393, 1979, with rat hemoglobin as standard (Sigma-Aldrich). The supernatants were diluted 1:25 in TBS. […] The reaction was stopped with 100 μL of 2 M phosphoric acid, and the absorbance at 450 nm was measured with an MRX Revelation Microplate Reader (DYNEX Technologies). […] The mice were euthanized with an i.p. injection of pentobarbital. […] The fixed tissue was embedded in paraffin, sectioned at 6 μm, stained with hematoxylin and eosin, and examined by light microscopy. Scoring was conducted by a veterinary pathologist in blinded fashion. […] Clin. Invest., 98:1010-1020, 1996. The scores were summed to provide a total colitis score for each mouse. […] The serum was decanted and stored frozen at -20° C. The samples, standards, and buffer blanks (2 μL each) were aliquoted into duplicate wells of a 96-well plate. Calcium reagent working solution (0.25 mL), prepared according to the manufacturer's directions (Sigma Diagnostics, St. Louis, Mo.), was added to each well, and the absorbance at 570 nm was measured. […] In particular, age-matched adult C3H/HeJ male mice were subjected to three DS treatment cycles treatment separated by 6-8 weeks. […] Between treatments, the mice were fed laboratory mouse chow. These treatments induced chronic IBD. Beginning 10 days after the last DS treatment was completed, the mice were divided into two groups. The groups were matched with respect to fecal Hg and weight (Table 6). Group A was fed synthetic diet and group B was fed calcitriol in synthetic diet. The experiment was terminated 21 days later.

129x1/SvJ male mice = assay: Serum calcium after calcitriol feeding, 129x1/SvJ male mice
Experimental: In order to determine serum calcium, blood was collected, allowed to clot, and centrifuged (5,000×g for 10 minutes) at 6° C. The serum was decanted and stored frozen at −20° C. The samples, standards, and buffer blanks (2 μL each) were aliquoted into duplicate wells of a 96-well plate. Calcium reagent working solution (0.25 mL), prepared according to the manufacturer's directions (Sigma Diagnostics, St. Louis, Mo.), was added to each well, and the absorbance at 570 nm was measured.

[2] = tested on: DS-induced colitis in C3H/HeJ male mice; assay: Calcitriol prevention of DS-induced colitis; details: 50 ng/day in diet from day −7; 1% DS days 0 to 5; terminated day 27
[3] = 50 ng/day after cycle 3, 21 days, 3 cycles of 1% DS
[4] = 50 ng/day after cycle 3, 3 cycles of 1% DS

Q: Which results are given for `C=C1/C(=C\C=C2/CCC[C@]3(C)[C@@H]([C@H](C)CCCC(C)(C)O)CC[C@@H]23)C[C@@H](O)C[C@@H]1O` [Calcitriol, 1,25 dihydroxyvitamin D3]?
A: Terminal serum calcium [1, 3]: 10.3 ± 1.1 mg/dL; Terminal weight [1, 3]: 35.1 ± 4.0 g; Colon Histopathology, Distal colon [1, 4]: 1 ± 1; Colon histopathology, Medial colon [1, 4]: 1 ± 1; Colon histopathology, Proximal colon [1, 4]: 2 ± 1; Colon histopathology, Rectum [1, 4]: 2 ± 1; Colon histopathology, Sum [1, 4]: 6 ± 2; Hemoglobin in Stool (DS cycle 3) ([1]; DS cycle 3, before calcitriol was started (groups matched for fecal Hg)): 9 ± 10 mg/g; Effect on severity of chronic DS-induced IBD ([1]; calcitriol in synthetic diet for 21 days): reduced the severity of chronic DS-induced IBD; Reduction in colon histopathology ([1]; treated with calcitriol for 21 days): approximately 45%; Serum Calcium 129x1/SvJ male (129x1/SvJ male mice; 10 ng/d for two weeks): 12.4 ± 0.6 mg/dL; Serum Calcium 129x1/SvJ male (129x1/SvJ male mice; 20 ng/d for two weeks): 11.5 ± 0.1 mg/dL; Serum Calcium 129x1/SvJ male (129x1/SvJ male mice; 50 ng/d for two weeks): 11.5 ± 0.4 mg/dL; Serum Calcium 129x1/SvJ male (129x1/SvJ male mice; 100 ng/d for two weeks): 11.1 ± 1.1 mg/dL; Tolerability of the calcitriol doses (129x1/SvJ male mice; mouse, in vivo): well tolerated; Terminal weight [2]: 28.0 ± 2.9 g
